Source: ChEMBL document CHEMBL4507296 (2021)

Legend:
[1] = molecular target: Serine/threonine-protein kinase STK11 (Homo sapiens) (UniProt Q15831); conditions: Compound concentration 1000.0 nM
[2] = molecular target: Histamine H1 receptor (Homo sapiens) (UniProt P35367); conditions: Compound concentration 10.0 uM
[3] = molecular target: Dual serine/threonine and tyrosine protein kinase (Homo sapiens) (UniProt Q6XUX3); conditions: Compound concentration 1000.0 nM
[4] = molecular target: Tyrosine-protein kinase ABL1 (Homo sapiens) (UniProt P00519); conditions: Compound concentration 1000.0 nM
[5] = molecular target: Testis-specific serine/threonine-protein kinase 1 (Homo sapiens) (UniProt Q9BXA7); conditions: Compound concentration 1000.0 nM
[6] = molecular target: Phosphatidylinositol 4,5-bisphosphate 3-kinase catalytic subunit beta isoform (Homo sapiens) (UniProt P42338); conditions: Compound concentration 1000.0 nM
[7] = molecular target: Serine/threonine-protein kinase 33 (Homo sapiens) (UniProt Q9BYT3); conditions: Compound concentration 1000.0 nM
[8] = molecular target: Ribosomal protein S6 kinase alpha-3 (Homo sapiens) (UniProt P51812); conditions: Compound concentration 1000.0 nM
[9] = molecular target: Serine/threonine-protein kinase RIO1 (Homo sapiens) (UniProt Q9BRS2); conditions: Compound concentration 1000.0 nM
[10] = molecular target: Bone morphogenetic protein receptor type-1B (Homo sapiens) (UniProt O00238); conditions: Compound concentration 1000.0 nM
[11] = molecular target: Mitogen-activated protein kinase 4 (Homo sapiens) (UniProt P31152); conditions: Compound concentration 1000.0 nM
[12] = molecular target: Megakaryocyte-associated tyrosine-protein kinase (Homo sapiens) (UniProt P42679); conditions: Compound concentration 1000.0 nM
[13] = molecular target: Phosphatidylinositol 5-phosphate 4-kinase type-2 gamma (Homo sapiens) (UniProt Q8TBX8); conditions: Compound concentration 1000.0 nM
[14] = molecular target: Dual specificity protein kinase CLK1 (Homo sapiens) (UniProt P49759); conditions: Compound concentration 1000.0 nM
[15] = molecular target: Mitogen-activated protein kinase kinase kinase 13 (Homo sapiens) (UniProt O43283); conditions: Compound concentration 1000.0 nM
[16] = molecular target: Receptor-interacting serine/threonine-protein kinase 2 (Homo sapiens) (UniProt O43353); conditions: Compound concentration 1000.0 nM
[17] = molecular target: Serine/threonine-protein kinase SIK3 (Homo sapiens) (UniProt Q9Y2K2); conditions: Compound concentration 1000.0 nM
[18] = molecular target: 3-phosphoinositide-dependent protein kinase 1 (Homo sapiens) (UniProt O15530); conditions: Compound concentration 1000.0 nM
[19] = molecular target: Serine/threonine-protein kinase PAK 4 (Homo sapiens) (UniProt O96013); conditions: Compound concentration 1000.0 nM
[20] = molecular target: Phosphatidylinositol 4-phosphate 5-kinase type-1 alpha (Homo sapiens) (UniProt Q99755); conditions: Compound concentration 1000.0 nM
[21] = molecular target: Tyrosine-protein kinase ZAP-70 (Homo sapiens) (UniProt P43403); conditions: Compound concentration 1000.0 nM
[22] = molecular target: Wee1-like protein kinase (Homo sapiens) (UniProt P30291); conditions: Compound concentration 1000.0 nM
[23] = molecular target: Beta-3 adrenergic receptor (Homo sapiens) (UniProt P13945); conditions: Compound concentration 10.0 uM
[24] = molecular target: Casein kinase II subunit alpha (Homo sapiens) (UniProt P68400); conditions: Compound concentration 1000.0 nM
[25] = molecular target: cGMP-dependent protein kinase 2 (Homo sapiens) (UniProt Q13237); conditions: Compound concentration 1000.0 nM
[26] = molecular target: Ribosomal protein S6 kinase alpha-1 (Homo sapiens) (UniProt Q15418); conditions: Compound concentration 1000.0 nM
[27] = molecular target: Fibroblast growth factor receptor 3 (Homo sapiens) (UniProt P22607); conditions: Compound concentration 1000.0 nM
[28] = molecular target: Serine/threonine-protein kinase BRSK2 (Homo sapiens) (UniProt Q8IWQ3); conditions: Compound concentration 1000.0 nM
[29] = tested on: Tyrosine-protein kinase ABL1 (Homo sapiens), P00519 [H396P]; conditions: Compound concentration 1000.0 nM
[30] = molecular target: Serine/threonine-protein kinase LATS2 (Homo sapiens) (UniProt Q9NRM7); conditions: Compound concentration 1000.0 nM
[31] = molecular target: Aurora kinase B (Homo sapiens) (UniProt Q96GD4); conditions: Compound concentration 1000.0 nM
[32] = molecular target: Serine/threonine-protein kinase 36 (Homo sapiens) (UniProt Q9NRP7); conditions: Compound concentration 1000.0 nM
[33] = molecular target: Cyclin-dependent kinase 7 (Homo sapiens) (UniProt P50613); conditions: Compound concentration 1000.0 nM
[34] = tested on: Proto-oncogene tyrosine-protein kinase receptor Ret (Homo sapiens), P07949 [V804L]; conditions: Compound concentration 1000.0 nM
[35] = tested on: Mast/stem cell growth factor receptor Kit (Homo sapiens), P10721 [D816H]; conditions: Compound concentration 1000.0 nM
[36] = molecular target: TGF-beta receptor type-2 (Homo sapiens) (UniProt P37173); conditions: Compound concentration 1000.0 nM
[37] = molecular target: Protein kinase C iota type (Homo sapiens) (UniProt P41743); conditions: Compound concentration 1000.0 nM
[38] = molecular target: Protein kinase C theta type (Homo sapiens) (UniProt Q04759); conditions: Compound concentration 1000.0 nM
[39] = molecular target: Ephrin type-A receptor 2 (Homo sapiens) (UniProt P29317); conditions: Compound concentration 1000.0 nM
[40] = molecular target: SNF-related serine/threonine-protein kinase (Homo sapiens) (UniProt Q9NRH2); conditions: Compound concentration 1000.0 nM
[41] = molecular target: Dual specificity testis-specific protein kinase 1 (Homo sapiens) (UniProt Q15569); conditions: Compound concentration 1000.0 nM
[42] = molecular target: Serine/threonine-protein kinase 32A (Homo sapiens) (UniProt Q8WU08); conditions: Compound concentration 1000.0 nM
[43] = molecular target: Serine/threonine-protein kinase 16 (Homo sapiens) (UniProt O75716); conditions: Compound concentration 1000.0 nM
[44] = molecular target: Serine/threonine-protein kinase DCLK3 (Homo sapiens) (UniProt Q9C098); conditions: Compound concentration 1000.0 nM
[45] = molecular target: Alpha-1B adrenergic receptor (Homo sapiens) (UniProt P35368); conditions: Compound concentration 10.0 uM

Chain of Serine/threonine-protein kinase 32A (Homo sapiens) (Q8WU08 whole entry): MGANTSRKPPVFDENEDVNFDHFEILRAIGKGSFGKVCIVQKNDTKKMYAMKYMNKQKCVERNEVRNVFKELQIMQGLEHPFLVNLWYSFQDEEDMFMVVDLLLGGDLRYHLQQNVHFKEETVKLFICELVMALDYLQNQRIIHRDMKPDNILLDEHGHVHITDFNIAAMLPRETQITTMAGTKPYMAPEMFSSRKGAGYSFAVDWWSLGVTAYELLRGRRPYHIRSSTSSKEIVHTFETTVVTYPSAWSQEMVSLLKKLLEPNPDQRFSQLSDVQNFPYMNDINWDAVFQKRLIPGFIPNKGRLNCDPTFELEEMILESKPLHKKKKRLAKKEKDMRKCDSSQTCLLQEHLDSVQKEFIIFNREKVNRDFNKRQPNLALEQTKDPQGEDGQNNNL
Chain of SNF-related serine/threonine-protein kinase (Homo sapiens) (Q9NRH2 whole entry): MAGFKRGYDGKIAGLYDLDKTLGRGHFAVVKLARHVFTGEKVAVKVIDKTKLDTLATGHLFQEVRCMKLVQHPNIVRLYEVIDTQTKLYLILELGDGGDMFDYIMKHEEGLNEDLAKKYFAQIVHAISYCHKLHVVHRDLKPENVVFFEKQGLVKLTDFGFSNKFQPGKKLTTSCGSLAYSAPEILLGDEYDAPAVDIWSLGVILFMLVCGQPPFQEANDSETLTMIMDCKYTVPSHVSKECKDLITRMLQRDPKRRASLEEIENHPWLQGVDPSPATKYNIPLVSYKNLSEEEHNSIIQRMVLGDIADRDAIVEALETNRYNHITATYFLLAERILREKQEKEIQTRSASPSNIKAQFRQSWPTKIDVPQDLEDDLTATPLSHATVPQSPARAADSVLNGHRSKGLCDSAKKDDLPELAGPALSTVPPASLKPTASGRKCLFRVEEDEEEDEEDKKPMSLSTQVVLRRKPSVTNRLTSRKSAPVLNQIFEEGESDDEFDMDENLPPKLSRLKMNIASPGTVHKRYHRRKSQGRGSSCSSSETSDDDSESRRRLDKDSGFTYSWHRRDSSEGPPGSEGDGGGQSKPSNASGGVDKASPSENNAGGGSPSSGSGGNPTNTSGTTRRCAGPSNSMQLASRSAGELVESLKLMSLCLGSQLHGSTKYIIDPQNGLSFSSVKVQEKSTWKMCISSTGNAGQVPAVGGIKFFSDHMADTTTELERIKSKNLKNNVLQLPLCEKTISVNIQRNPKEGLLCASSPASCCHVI
Chain of Megakaryocyte-associated tyrosine-protein kinase (Homo sapiens) (P42679 whole entry): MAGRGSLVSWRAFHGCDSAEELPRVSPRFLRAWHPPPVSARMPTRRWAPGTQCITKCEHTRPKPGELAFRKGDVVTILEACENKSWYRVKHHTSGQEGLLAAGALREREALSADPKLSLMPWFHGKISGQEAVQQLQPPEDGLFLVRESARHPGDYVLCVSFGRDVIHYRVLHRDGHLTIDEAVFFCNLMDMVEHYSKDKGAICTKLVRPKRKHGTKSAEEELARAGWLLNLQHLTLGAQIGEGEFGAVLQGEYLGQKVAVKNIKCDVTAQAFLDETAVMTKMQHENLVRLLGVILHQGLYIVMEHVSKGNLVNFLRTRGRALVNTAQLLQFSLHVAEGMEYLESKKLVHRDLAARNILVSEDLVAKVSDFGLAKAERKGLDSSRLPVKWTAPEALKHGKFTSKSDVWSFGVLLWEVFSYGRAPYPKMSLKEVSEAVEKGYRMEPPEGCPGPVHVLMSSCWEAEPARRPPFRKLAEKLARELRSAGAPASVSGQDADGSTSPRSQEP
Chain of Beta-3 adrenergic receptor (Homo sapiens) (P13945 whole entry, looked up): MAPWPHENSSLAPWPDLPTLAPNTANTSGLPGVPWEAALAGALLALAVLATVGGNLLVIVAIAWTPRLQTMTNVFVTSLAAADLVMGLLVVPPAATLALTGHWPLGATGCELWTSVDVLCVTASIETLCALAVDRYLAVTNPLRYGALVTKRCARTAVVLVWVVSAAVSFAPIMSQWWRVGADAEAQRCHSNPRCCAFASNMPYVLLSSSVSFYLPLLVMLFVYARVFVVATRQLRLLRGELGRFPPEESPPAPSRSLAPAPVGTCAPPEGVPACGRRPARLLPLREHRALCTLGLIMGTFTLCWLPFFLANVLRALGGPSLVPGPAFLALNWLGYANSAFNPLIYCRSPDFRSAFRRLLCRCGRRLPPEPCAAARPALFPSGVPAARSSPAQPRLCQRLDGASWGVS
Chain of Aurora kinase B (Homo sapiens) (Q96GD4 whole entry): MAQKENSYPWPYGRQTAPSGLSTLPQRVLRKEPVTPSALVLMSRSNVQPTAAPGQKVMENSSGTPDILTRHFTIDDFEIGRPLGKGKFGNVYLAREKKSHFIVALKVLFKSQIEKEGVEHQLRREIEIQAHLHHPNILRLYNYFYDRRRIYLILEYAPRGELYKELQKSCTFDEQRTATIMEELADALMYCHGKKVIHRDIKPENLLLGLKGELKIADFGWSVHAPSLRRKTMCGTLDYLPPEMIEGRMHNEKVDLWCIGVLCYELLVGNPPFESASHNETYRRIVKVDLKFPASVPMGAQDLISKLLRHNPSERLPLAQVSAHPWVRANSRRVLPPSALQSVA
Chain of Protein kinase C theta type (Homo sapiens) (Q04759 whole entry, looked up): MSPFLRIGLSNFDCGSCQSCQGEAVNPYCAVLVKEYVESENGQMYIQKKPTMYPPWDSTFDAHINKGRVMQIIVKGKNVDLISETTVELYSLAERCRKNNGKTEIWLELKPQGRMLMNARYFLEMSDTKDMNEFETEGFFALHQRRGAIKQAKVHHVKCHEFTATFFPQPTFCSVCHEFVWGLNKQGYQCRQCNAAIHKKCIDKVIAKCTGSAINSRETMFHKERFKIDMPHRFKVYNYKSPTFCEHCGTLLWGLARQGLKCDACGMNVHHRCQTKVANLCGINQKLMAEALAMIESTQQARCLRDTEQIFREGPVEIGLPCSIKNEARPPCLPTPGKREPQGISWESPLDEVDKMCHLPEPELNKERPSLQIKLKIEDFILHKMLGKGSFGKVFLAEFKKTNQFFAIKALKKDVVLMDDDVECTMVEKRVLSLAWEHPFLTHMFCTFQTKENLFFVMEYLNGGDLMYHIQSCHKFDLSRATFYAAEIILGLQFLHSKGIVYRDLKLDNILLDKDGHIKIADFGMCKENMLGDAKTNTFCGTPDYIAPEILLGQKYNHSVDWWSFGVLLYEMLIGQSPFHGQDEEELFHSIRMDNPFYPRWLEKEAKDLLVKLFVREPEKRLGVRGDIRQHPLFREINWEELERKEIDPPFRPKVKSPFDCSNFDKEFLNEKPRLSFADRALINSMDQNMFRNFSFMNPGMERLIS
Chain of Phosphatidylinositol 4-phosphate 5-kinase type-1 alpha (Homo sapiens) (Q99755 whole entry): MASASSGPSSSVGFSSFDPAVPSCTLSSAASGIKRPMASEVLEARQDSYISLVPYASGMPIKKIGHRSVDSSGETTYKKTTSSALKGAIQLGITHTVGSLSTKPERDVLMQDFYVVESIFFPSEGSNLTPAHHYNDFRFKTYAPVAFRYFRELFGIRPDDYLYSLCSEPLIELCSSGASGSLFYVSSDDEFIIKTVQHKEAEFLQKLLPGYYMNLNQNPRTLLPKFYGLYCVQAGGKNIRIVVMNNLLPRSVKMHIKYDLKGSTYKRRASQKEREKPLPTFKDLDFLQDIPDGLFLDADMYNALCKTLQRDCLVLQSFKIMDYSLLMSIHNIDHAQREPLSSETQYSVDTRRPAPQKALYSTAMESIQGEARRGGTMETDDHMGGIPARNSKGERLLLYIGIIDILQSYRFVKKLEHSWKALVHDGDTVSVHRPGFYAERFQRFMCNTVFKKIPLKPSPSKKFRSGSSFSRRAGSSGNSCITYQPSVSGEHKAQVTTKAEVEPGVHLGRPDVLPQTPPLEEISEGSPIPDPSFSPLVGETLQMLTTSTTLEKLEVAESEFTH
Chain of Dual serine/threonine and tyrosine protein kinase (Homo sapiens) (Q6XUX3 whole entry): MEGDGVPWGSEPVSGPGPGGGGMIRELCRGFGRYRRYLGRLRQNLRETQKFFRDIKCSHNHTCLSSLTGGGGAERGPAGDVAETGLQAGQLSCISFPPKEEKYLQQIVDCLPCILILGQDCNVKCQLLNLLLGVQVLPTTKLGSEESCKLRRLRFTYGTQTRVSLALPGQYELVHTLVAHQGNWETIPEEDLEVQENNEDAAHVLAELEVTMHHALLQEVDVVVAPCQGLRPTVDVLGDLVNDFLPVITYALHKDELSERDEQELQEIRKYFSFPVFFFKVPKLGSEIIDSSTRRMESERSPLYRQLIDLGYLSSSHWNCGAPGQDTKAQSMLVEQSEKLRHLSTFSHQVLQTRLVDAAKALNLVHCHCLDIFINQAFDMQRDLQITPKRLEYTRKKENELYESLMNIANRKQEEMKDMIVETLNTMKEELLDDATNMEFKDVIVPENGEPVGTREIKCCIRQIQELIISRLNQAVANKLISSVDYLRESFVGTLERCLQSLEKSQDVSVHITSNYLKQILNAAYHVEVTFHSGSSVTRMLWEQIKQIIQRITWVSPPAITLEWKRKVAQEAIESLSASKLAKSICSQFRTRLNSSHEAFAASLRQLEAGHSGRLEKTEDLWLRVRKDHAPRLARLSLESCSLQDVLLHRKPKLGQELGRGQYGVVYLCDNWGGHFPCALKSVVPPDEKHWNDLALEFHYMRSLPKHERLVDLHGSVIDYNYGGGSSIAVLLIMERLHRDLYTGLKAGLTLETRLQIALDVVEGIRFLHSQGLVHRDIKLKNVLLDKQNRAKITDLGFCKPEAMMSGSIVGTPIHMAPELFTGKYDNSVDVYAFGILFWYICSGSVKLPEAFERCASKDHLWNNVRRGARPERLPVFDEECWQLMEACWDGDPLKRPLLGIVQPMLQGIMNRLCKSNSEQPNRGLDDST
Chain of Testis-specific serine/threonine-protein kinase 1 (Homo sapiens) (Q9BXA7 whole entry, canonical isoform): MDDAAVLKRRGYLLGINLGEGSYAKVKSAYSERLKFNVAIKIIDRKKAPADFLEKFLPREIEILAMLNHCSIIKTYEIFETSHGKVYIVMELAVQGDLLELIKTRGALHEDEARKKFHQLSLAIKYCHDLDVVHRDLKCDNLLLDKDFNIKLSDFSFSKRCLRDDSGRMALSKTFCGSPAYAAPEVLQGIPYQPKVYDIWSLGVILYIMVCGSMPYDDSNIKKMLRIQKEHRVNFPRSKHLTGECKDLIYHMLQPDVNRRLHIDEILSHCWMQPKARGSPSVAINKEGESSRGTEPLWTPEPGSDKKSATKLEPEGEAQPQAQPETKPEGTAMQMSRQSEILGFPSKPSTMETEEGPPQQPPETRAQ

C[C@H](c1ccc(F)cc1)N(Cc1cccc(C(=O)O)c1)C(=O)c1cnc2ccccc2c1 [PF-05105679]
inactive: residual activity [1] 100% | inhibition [2] 22.9% | residual activity [3] 100% | residual activity [4] 76% | residual activity [5] 91% | residual activity [6] 100% | residual activity [7] 100% | residual activity [8] 100% | residual activity [9] 100% | residual activity [10] 95% | residual activity [11] 93% | residual activity [12] 79% | residual activity [13] 81% | residual activity [14] 91% | residual activity [15] 75% | residual activity [16] 82% | residual activity [17] 80% | residual activity [18] 100% | residual activity [19] 100% | residual activity [20] 100% | residual activity [21] 96% | residual activity [22] 96% | inhibition [23] 2.81% | residual activity [24] 100% | residual activity [25] 100% | residual activity [26] 100% | residual activity [27] 82% | residual activity [28] 100% | residual activity [29] 100% | residual activity [30] 64% | residual activity [31] 100% | residual activity [32] 100% | residual activity [33] 100% | residual activity [34] 85% | residual activity [35] 100% | residual activity [36] 100% | residual activity [37] 100% | residual activity [38] 100% | residual activity [39] 100% | residual activity [40] 96% | residual activity [41] 100% | residual activity [42] 100% | residual activity [43] 100% | residual activity [44] 100% | inhibition [45] -0.5%
